Marks after values point to notes of the source that are not given here.
Columns and labels:
Botrytis cinerea = test: Test E: tomato botrytis, preventive spray on tomato seedlings
Phytophthora infestans = test: whole plant or invertebrate; format: in vivo
Plasmopara viticola = test: Test D: grape downy mildew, spray after inoculation of grape seedlings; format: in vivo
From the text: Upon removal, disease ratings were made. […] A dash (-) indicates no test results.

Septoria tritici = test: Test J: wheat leaf blotch, preventive spray on wheat seedlings; format: in vivo
From the text: A dash (-) indicates no test results.

Pythium aphanidermatum = test: Test A: bluegrass pythium blight, preventive spray on bluegrass seedlings
[1] = system: Puccinia recondita f. sp. tritici; test: Test K: wheat leaf rust, preventive spray on wheat seedlings
Septoria nodorum = test: Test H: wheat glum blotch, preventive spray on wheat seedlings
Method: (the causal agent of wheat glum blotch) and incubated in a saturated atmosphere at 20° C. for 48 h, and then moved to a growth chamber at 22° C. for 5 days, after which disease ratings were made.

[2] = system: Erysiphe graminis f. sp. tritici; test: Test L: wheat powdery mildew, preventive spray on wheat seedlings
[3] = system: Colletotrichum orbiculare; test: Test B: cucumber Colletotrichum anthracnose, preventive spray on cucumber seedlings
Rhizoctonia oryzae = test: Test G: turf brown patch, preventive spray on creeping bent grass seedlings
Method: (the causal agent of turf brown patch) and incubated in a saturated atmosphere at 27° C. for 24 h, and then moved to a growth chamber at 27° C. for 5 days, after which disease ratings were made.

fusarium graminearium = test: Test I: wheat head scab, preventive spray on wheat seedlings
Method: (the causal agent of wheat head scab) and incubated in a saturated atmosphere at 20° C. for 72 h, and then moved to a growth chamber at 22° C. for 5 days, after which disease ratings were made.

Row | SMILES | Test F disease control rating (Phytophthora infestans; 200 ppm) | Test D disease control rating (Plasmopara viticola; 200 ppm) | Test A disease control rating (Pythium aphanidermatum; 200 ppm) | Test I disease control rating (fusarium graminearium; 200 ppm) | Test E disease control rating (Botrytis cinerea; 40 ppm (*)) | Test J disease control rating (Septoria tritici; 40 ppm (*)) | Test K disease control rating ([1]; 40 ppm (*)) | Test H disease control rating (Septoria nodorum; 40 ppm (*)) | Test L disease control rating ([2]; 40 ppm (*)) | Test B disease control rating ([3]; 40 ppm (*)) | Test G disease control rating (Rhizoctonia oryzae; 40 ppm (*)) | also measured
1 | CC(c1ccccc1)n1c(-c2c(F)cccc2F)c(Cl)nc(-n2cccn2)c1=O (stereo not shown) [compound 107] | 0% | 0% | 0% | 69% |  |  |  |  |  |  |  | Test E disease control rating (Botrytis cinerea; 200 ppm): 0%; Test J disease control rating (Septoria tritici; 200 ppm): 93%; Test K disease control rating ([1]; 200 ppm): 98%; Test H disease control rating (Septoria nodorum; 200 ppm): 0%; Test L disease control rating ([2]; 200 ppm): 0%; Test B disease control rating ([3]; 200 ppm): 0%; Test G disease control rating (Rhizoctonia oryzae; 200 ppm): 0%
2 | CC(c1ccccc1)n1c(-c2c(F)cccc2F)c(Cl)nc(-n2cncn2)c1=O (stereo not shown) [compound 108] | 0% | 0% | 0% | 0% |  |  |  |  |  |  |  | Test E disease control rating (Botrytis cinerea; 200 ppm): 56%; Test J disease control rating (Septoria tritici; 200 ppm): 11%; Test K disease control rating ([1]; 200 ppm): 0%; Test H disease control rating (Septoria nodorum; 200 ppm): 0%; Test L disease control rating ([2]; 200 ppm): 0%; Test B disease control rating ([3]; 200 ppm): 0%; Test G disease control rating (Rhizoctonia oryzae; 200 ppm): 0%
3 | CC(c1ccccc1)n1c(-c2c(F)cccc2F)c(Cl)nc(C#N)c1=O (stereo not shown) [compound 109] | 0% | 0% | 0% | 0% |  |  |  |  |  |  |  | Test E disease control rating (Botrytis cinerea; 200 ppm): 0%; Test J disease control rating (Septoria tritici; 200 ppm): 0%; Test K disease control rating ([1]; 200 ppm): 0%; Test H disease control rating (Septoria nodorum; 200 ppm): 0%; Test L disease control rating ([2]; 200 ppm): 0%; Test B disease control rating ([3]; 200 ppm): 0%; Test G disease control rating (Rhizoctonia oryzae; 200 ppm): 0%
4 | CC(C)Cn1c(-c2c(Cl)ccc(Cl)c2Cl)c(Cl)nc(-n2cccn2)c1=O [compound 121] | 0% | 0% | 0% | 0% | 100* % | 100* % | 99* % | 99* % | 0* % | 91* % | 44* % | 
5 | CCC(C)Cn1c(-c2c(F)cccc2F)c(Cl)nc(NN(C)C)c1=O (stereo not shown) [compound 134] | 0% | 0% | 0% | 89% | 0* % | 59* % | 28* % | 0* % | 0* % | 0* % | 0* % | 
6 | CCC(C)Cn1c(-c2c(F)cccc2F)c(Cl)nc(NN2CCOCC2)c1=O (stereo not shown) [compound 135] | 0% | 0% | 0% | 0% | 0* % | 0* % | 0* % | 0* % | 0* % | 0* % | 0* % | 
7 | Cc1cc(C)cc(-c2c(Cl)nc(-n3cncn3)c(=O)n2CC(C)C)c1 [compound 136] | 58% | 40% | 0% | 0% | 0* % | 28* % | 0* % | 0* % | 0* % | 0* % | 0* % | 
8 | Cc1cc(C)cc(-c2c(Cl)nc(-n3cccn3)c(=O)n2CC(C)C)c1 [compound 137] | 0% | 0% | 0% | 0% | 0* % |  | 0* % | 0* % | 0* % | 0* % | 0* % | Test J disease control rating (Septoria tritici; 200 ppm): 30%
9 | CCCCn1c(-c2c(F)cccc2F)c(Cl)nc(-n2cccn2)c1=O [compound 148] | 0% | 73% | 0% | 0% | 99* % | 100* % | 97* % | 100* % | 98* % | 47* % | 81* % | 
10 | CC(C)Cn1c(-c2cc(C(F)(F)F)cc(C(F)(F)F)c2)c(Cl)nc(-n2cccn2)c1=O [compound 150] |  |  |  |  | 0* % | 0* % | 0* % | 0* % | 0* % | 0* % | 0* % | Test F disease control rating (Phytophthora infestans; 40 ppm (*)): 0* %; Test D disease control rating (Plasmopara viticola; 40 ppm (*)): 0* %; Test A disease control rating (Pythium aphanidermatum; 40 ppm (*)): 0* %; Test I disease control rating (fusarium graminearium; 40 ppm (*)): 0* %
11 | CC(C)Cn1c(-c2ccc(Cl)o2)c(Cl)nc(-n2cccn2)c1=O [compound 151] | 33% | 31% | 0% | 0% | 98* % | 12* % | 19* % | 0* % | 0* % | 0* % | 0* % | 
12 | CC(C)Cn1c(-c2ccc(Cl)s2)c(Cl)nc(-n2cccn2)c1=O [compound 152] | 0% | 16% | 0% | 0% | 100* % | 91* % | 55* % | 0* % | 0* % | 0* % | 0* % | 
13 | CC(C)Cn1c(-c2ccoc2)c(Cl)nc(-n2cccn2)c1=O [compound 153] | 0% | 31% | 0% | 0% | 79* % | 20* % | 0* % | 0* % | 0* % | 0* % | 0* % | 
14 | CC(C)Cn1c(-c2ccsc2)c(Cl)nc(-n2cccn2)c1=O [compound 154] | 0% | 50% | 0% | 0% | 99* % | 45* % | 0* % | 0* % | 0* % | 0* % | 0* % | 
